{"source": "patent US11225469B2", "about": "“Inhibitors of phosphoglycerate dehydrogenase (PHGDH) and uses thereof” (Whitehead Institute for Biomedical Research, priority 2015, dated 2022)", "key": {"GPD1": {"biological_target": "GPD1 (Homo sapiens (Human), UniProt P21695)", "sequence (P21695 whole entry)": "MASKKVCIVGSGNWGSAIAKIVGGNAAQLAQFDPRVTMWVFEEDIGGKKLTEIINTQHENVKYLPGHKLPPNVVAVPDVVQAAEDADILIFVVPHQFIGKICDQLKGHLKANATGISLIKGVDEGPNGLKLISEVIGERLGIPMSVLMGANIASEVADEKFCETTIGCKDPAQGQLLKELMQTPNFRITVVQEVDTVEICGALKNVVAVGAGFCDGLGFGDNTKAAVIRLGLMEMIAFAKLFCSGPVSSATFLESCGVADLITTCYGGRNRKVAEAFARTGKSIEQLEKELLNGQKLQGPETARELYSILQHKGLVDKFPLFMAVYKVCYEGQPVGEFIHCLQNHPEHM", "assay": "Counter-screen against GPD1", "type": "biochemical", "settings": "Table E11", "experimental": "GAPDH substrate buffer contained 210 mM Tris pH 7.4, 2.5 mM NaH2PO4 pH 7.4, 2 mM DL-Glyceraldehyde 3-phosphate, 1.75 mM MgCl2, 0.01 mM NAD+, 0.11 mM resazurin, 0.2 mg/mL BSA, and 0.01% Tween-20. GAPDH enzyme buffer contained 50 mM Tris pH 7.4, 100 mM NaCl, 0.02 mM TCEP, 0.01 mM EDTA, 0.1 mg/mL BSA, 0.42 mg/mL diaphorase, and 2.5 nM GAPDH. The GAPDH, GPD1, and GPD1L assays were run in 384-well plates using the same protocol and readout as the PHGDH assay. […] GPD1 enzyme buffer contained 50 mM Tris pH 7.4, 100 mM NaCl, 0.08 mM TCEP, 0.4 mg/mL BSA, 0.03 μM EDTA, and 0.8 nM GPD1. 70 μL of substrate buffer were mixed with 10 μL enzyme buffer. GPD1L substrate buffer contained 200 mM Tris pH 7.4, 0.05 mM sn-G3-P, 2 mM MgCl2, 0.04 mM NAD+, 0.11 mM resazurin, 0.1 mg/mL BSA, and 0.02% Tween-20. GPD1L enzyme buffer contained 50 mM Tris pH 7.4, 100 mM NaCl, 0.02 mM TCEP, 0.42 mg/mL diaphorase, 0.1 mg/mL BSA, 0.008 μM EDTA, and 16 nM GPD1L. 40 μL of substrate buffer were mixed with 40 μL of enzyme buffer.\nThe GAPDH and GPD1L assays were read using the same protocol as the PHGDH assay. The GPD1 assay was read using loss of NADH fluorescence (λex=340 nm and λem=460 nm)."}, "[1]": {"system": "MDA-MB-231 orthotopic xenografts", "assay": "MDA-MB-231 orthotopic xenografts", "type": "in vivo, mouse", "settings": "40 mg/kg daily, IP", "experimental": "Female NOD.CB17-Prkdc^scid/J mice, 6-8 weeks old, were obtained from Jackson Laboratories. All animals were provided with food ad libitum for the duration for the duration of the experiment. The animals were allocated randomly for induction with MDA-MB-231 or MDA-MB-468 tumors and tumor group was assigned blindly. 500,000 MDA-MB-231 or MDA-MB-468 cells were injected into the 4th mammary fat pad of each mouse. After 30 days, the tumors were palpable, and the mice were pooled by tumor type and divided randomly to two groups, which were assigned blindly to vehicle or NCT-503 treatment. […] Caliper measurements were obtained twice weekly and tumor volumes were calculated with the modified ellipsoid formula: volume=0.5×width^2×length.\nFor quantitation of necrotic regions, fixed tumors were embedded and sections stained with hematoxylin and eosin. Slides were scanned with a Leica Aperio AT2 brightfield scanner. Tumor and necrotic cross-sectional regions were manually delineated and measured using Leica ImageScope software to calculate the percentage of necrosis."}}, "data": [{"compound": "Cc1cc(C)nc(NC(=S)N2CCN(Cc3ccc(C(F)(F)F)cc3)CC2)c1", "note": "[Compound 267, N-(4,6-dimethylpyridin-2-yl)-4-(4-(trifluoromethyl)benzyl)piperazine-1-carbothioamide]", "values": [{"measurement": "IC50", "setting": "GPD1", "value": "≥ 100", "unit": "µM"}, {"measurement": "growth or weight of xenografts", "setting": "[1]", "value": "did not affect the growth or weight"}]}]}
